Source: ChEMBL document CHEMBL2331430, “Absolute configuration and conformational analysis of brevipolides, bioactive 5,6-dihydro-α-pyrones from Hyptis brevipes” (J Nat Prod, 2013)
In brackets after ≈: the same amount, converted by molar mass.

Legend:
KB = experiment: Cytotoxicity against human KB cells after 72 hrs by SRB assay
PC-3 = experiment: Cytotoxicity against human PC3 cells after 72 hrs by SRB assay; details: PC-3, 72 h, read-out: ED50 (the source's name)
MCF7 = experiment: Cytotoxicity against human MCF7 cells after 72 hrs by SRB assay; details: MCF7, 72 h, read-out: ED50 (the source's name)
HeLa = experiment: Cytotoxicity against human HeLa cells after 72 hrs by SRB assay; details: read-out: ED50 (the source's name)
HCT-15 = experiment: Cytotoxicity against human HCT15 cells after 72 hrs by SRB assay; details: HCT-15, 72 h, read-out: ED50 (the source's name)
[1] = tested on: Hep-2 (human laryngeal carcinoma); experiment: Cytotoxicity against human Hep-2 cells after 72 hrs by SRB assay; details: Hep-2, 72 h, read-out: ED50 (the source's name)

Compound	IC50 (KB)	EC50 (PC-3)	EC50 (MCF7)	EC50 (HeLa)	EC50 (HCT-15)	EC50 [1]
C[C@H](OC(=O)/C=C/c1ccc(O)cc1)C(=O)[C@H]1C[C@@H]1[C@H](O)[C@H]1CC=CC(=O)O1 [BREVIPOLIDE G]	0.3 mg/L (≈ 0.776 µM)	0.3 mg/L (≈ 0.776 µM)	0.3 mg/L (≈ 0.776 µM)	0.3 mg/L (≈ 0.776 µM)	0.3 mg/L (≈ 0.776 µM)	0.3 mg/L (≈ 0.776 µM)
COc1ccc(/C=C/C(=O)O[C@@H](C)C(=O)[C@H]2C[C@@H]2[C@H](O)[C@H]2CC=CC(=O)O2)cc1 [BREVIPOLIDE H]	2 mg/L (≈ 4.99 µM)	0.3 mg/L (≈ 0.749 µM)	0.3 mg/L (≈ 0.749 µM)	0.3 mg/L (≈ 0.749 µM)	0.3 mg/L (≈ 0.749 µM)	0.3 mg/L (≈ 0.749 µM)
COc1ccc(/C=C\C(=O)O[C@@H](C)C(=O)[C@H]2C[C@@H]2[C@H](O)[C@H]2CC=CC(=O)O2)cc1 [BREVIPOLIDE I]	1.9 mg/L (≈ 4.74 µM)	0.3 mg/L (≈ 0.749 µM)	0.3 mg/L (≈ 0.749 µM)	0.3 mg/L (≈ 0.749 µM)	0.3 mg/L (≈ 0.749 µM)	0.3 mg/L (≈ 0.749 µM)
COc1ccc(/C=C/C(=O)O[C@@H](C)C(=O)[C@H]2C[C@@H]2[C@H](O)[C@H]2CC=CC(=O)O2)cc1O [BREVIPOLIDE J]	1.2 mg/L (≈ 2.88 µM)	0.3 mg/L (≈ 0.72 µM)	0.3 mg/L (≈ 0.72 µM)	0.3 mg/L (≈ 0.72 µM)	0.3 mg/L (≈ 0.72 µM)	0.3 mg/L (≈ 0.72 µM)
